Source: patent EP0474374A1, “Method for treatment of bone wasting diseases using a progestin” (ORTHO PHARMACEUTICAL CORPORATION, priority 1990, dated 1992)
“Also recorded” adds a separate entry of the source.

Legend:
[1] = system: MC3T3-El osteoblast-line cells; assay: Osteoblast cell proliferation (3H-thymidine incorporation into DNA); assay type: cell-based, mouse; settings: for osteoblast proliferation and differentiation: summary statement in words, bone forming cells, cell line not named; for OSTEOBLAST STIMULATION: ability to stimulate 3H-thymidine incorporation in MC3T3-El osteoblast-line cells, stimulation over control
Procedure: Only cells undergoing mitosis will synthesize new DNA and thus only these cells will incorporate the radiolabelled DNA specific nucleotide, thymidine. […] The ability of agents to increase osteoblast proliferation and differentiation can be predicted by their action on cultured osteoblast-line cells in vitro. In this test mouse (MC3T3-El), and human (TE-85) osteoblast-line cells were cultured in vitro and the effect of various progestins was tested on osteoblast cell proliferation. Osteoblast cell proliferation was determined by measuring the rate of DNA synthesis, which was quantified by measuring the rate of ³H-thymidine incorporation into DNA.
Following their placement into 96 well culture plates all the osteoblast-line cells, either the MC3T3-El or the TE-85 cell lines, were allowed an additional 24 hours preincubation period in media containing only 0.1% fetal bovine sera. The next day the test compounds were added and screened at concentrations ranging from 10⁻¹⁴ to 10⁻⁶ M depending on the particular study. Twenty hours later a 20 ul aliquot of media containing 0.4 uCi of ³H-thymidine was added to each culture well. The cells were then incubated for an additional 4 hours. The incubation was terminated by aspirating the media and washing with HBSS (Hank's Balanced Salt Solution). The cells were then treated with 100 ul of Trypsin-EDTA (Ethylene Diamine Tetra Acetic Acid) (0.5% trypsin and 5.3 mM EDTA) for 30 minutes at room temperature. The cells were then aspirated onto a glass fiber filter and washed with water. The radioactivity on the filters was quantified by liquid scintillation spectroscopy. The rate of ³H-thymidine incorporation into DNA is then utilized as an index of cell proliferation.
Mouse (MC3T3-El) osteoblast-line cells were cultured in vitro and the effect of various progestins on the ability of the cells to incorporate 3H-thymidine was determined. Osteoblast cell proliferation is determined by measuring the rate of DNA synthesis which was quantified by measuring the rate of ³H-thymidine incorporation into DNA. MC-3T3-El osteoblast-line cells were harvested from large culture flasks where they were allowed to grow to near confluency using Trypsin.

[2] = target: T1, rat prostate androgen cytosolic receptors (Rattus norvegicus, UniProt P15207); assay: Androgen receptor binding (competitive 3H-DHT displacement); settings: 1 nM 3H-DHT, 24 hours at 4°C; mean + 1 S.E. of 4 determinations in duplicate
T1 construct: the supernatant was used as the cytosolic androgen receptor preparation; from tissue; host or cells: ventral prostate glands of castrated male rats (250-300 g); 105,000 g cytosol supernatant
T1 sequence (P15207 1-902): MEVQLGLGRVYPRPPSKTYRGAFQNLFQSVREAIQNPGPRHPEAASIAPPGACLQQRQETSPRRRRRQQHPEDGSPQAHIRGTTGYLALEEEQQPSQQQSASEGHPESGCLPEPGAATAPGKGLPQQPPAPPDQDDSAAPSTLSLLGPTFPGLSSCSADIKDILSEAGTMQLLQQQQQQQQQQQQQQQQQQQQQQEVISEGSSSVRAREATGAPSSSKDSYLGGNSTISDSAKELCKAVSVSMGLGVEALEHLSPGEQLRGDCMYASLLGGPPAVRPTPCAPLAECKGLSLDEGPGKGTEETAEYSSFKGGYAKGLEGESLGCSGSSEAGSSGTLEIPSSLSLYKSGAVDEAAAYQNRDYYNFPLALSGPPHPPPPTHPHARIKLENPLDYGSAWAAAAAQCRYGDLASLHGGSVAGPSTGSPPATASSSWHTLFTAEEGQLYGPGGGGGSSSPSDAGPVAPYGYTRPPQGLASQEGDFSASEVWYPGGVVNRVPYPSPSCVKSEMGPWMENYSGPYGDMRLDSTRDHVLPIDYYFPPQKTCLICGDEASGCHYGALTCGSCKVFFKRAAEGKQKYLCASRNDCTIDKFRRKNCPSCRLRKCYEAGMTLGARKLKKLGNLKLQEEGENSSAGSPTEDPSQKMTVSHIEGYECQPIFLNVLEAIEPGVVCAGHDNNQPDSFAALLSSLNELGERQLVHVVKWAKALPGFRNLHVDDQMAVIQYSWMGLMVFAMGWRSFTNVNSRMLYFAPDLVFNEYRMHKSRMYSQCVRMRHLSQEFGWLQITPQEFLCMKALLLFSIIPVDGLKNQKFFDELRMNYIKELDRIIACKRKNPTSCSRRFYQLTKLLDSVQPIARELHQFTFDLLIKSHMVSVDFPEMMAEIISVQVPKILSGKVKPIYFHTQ
Procedure: The relative binding affinity of other steroids, such as progestins, for androgen receptors can be determined by evaluating their ability to displace ³H-DHT from these rat ventral prostate receptors in vitro. Cytosolic androgen receptors were prepared from ventral prostate glands isolated from castrated male rats (250-300 g). Ventral prostate glands were homogenized and centrifuged at 105,000 g for 60 min at 4°C and the supernatant was used as the cytosolic androgen receptor preparation. […] The relative degree of receptor binding of the test progestin was expressed as percent inhibition of total ³H-DHT binding.
The relative binding affinity of other steroids, such as progestins, for androgen receptors is determined by evaluating their ability to displace ³H-DHT from these rat ventral prostate receptors in vitro. Cytosolic androgen receptors were prepared from ventral prostate glands isolated from castrate male rats (250-300 g). Ventral prostate glands were homogenized and centrifuged at 105,000 g for 60 min at 4°C and the supernatant used as the cytosolic androgen receptor preparation. […] The relative degree of receptor binding of the test progestin was expressed as percent inhibition of total ³H-DHT binding.
Relative androgen receptor binding activity was analyzed in competitive binding assays utilizing 3H-DHT binding for rat prostate androgen cytosolic receptors.

[3] = system: T47D breast carcinoma-line cells; assay: Breast carcinoma cell proliferation (3H-thymidine incorporation into DNA); assay type: cell-based, human; settings: 0.00001 to 100 nM, result in words
Procedure: T47D breast (Human) carcinoma-line cells (American Type Tissue Culture Collection #HTB 133, Rockville, MD) were harvested using Trypsin from large (175 cm²) culture flasks where they were allowed to grow to near confluency. The cells were plated into 96 well culture plates, 1600 cells in 100 ul per well in DMEM with 25 mM Hepes buffer, L-glutamine (584 mg/l); D-glucose (4.5 gm/l) supplemented with 10% fetal bovine sera; penicillin (100 units/ml) and streptomycin (100 mcg/ml); sodium pyruvate (10 uM final concentration). The cells were allowed to plate overnight in DMEM containing 10% fetal bovine sera at 37°C in an atmosphere of 5% CO₂/95% air. Following their placement into 96 well culture plates, the cells were incubated for an additional 24 hour preincubation period in media containing only 0.1% fetal bovine sera. The next day the test compounds were added and screened at concentrations ranging from 10⁻¹⁴ to 10⁻⁶ M depending on the particular study. Twenty hours later a 20 ul aliquot of media containing 0.4 uCi of ³H-thymidine was added to each culture well. The cells were then incubated for an additional 4 hours. […] The radioactivity on the filters was quantified by liquid scintillation spectroscopy. […]
MC3T3-El cells were cultured as described in Example #1. […] The radioactivity on the filters was quantified by liquid scintillation spectroscopy. […]

[4] = system: TE-85 human osteoblast-line cells; assay: Osteoblast cell proliferation (3H-thymidine incorporation into DNA); assay type: cell-based; settings: TE-85 cells, 0.0001 to 100 nM; result in words
Source text: The action of select progestins to stimulate osteoblast proliferation can be measured in culture by estimating the rate of DNA synthesis by the rate of 3H-thymidine incorporation into DNA. Only cells undergoing mitosis will synthesize new DNA and thus only these cells will incorporate the radiolabelled DNA specific nucleotide, thymidine. The stimulation of the proliferation and differentiation of bone-forming cells, osteoblasts, is a prerequisite for an increase in bone formation and bone mass. The ability of agents to increase osteoblast proliferation and differentiation can be predicted by their action on cultured osteoblast-line cells in vitro. […] Osteoblast cell proliferation was determined by measuring the rate of DNA synthesis, which was quantified by measuring the rate of ³H-thymidine incorporation into DNA. […]
MC-3T3-El (cloned by Sudo and Coworkers, Koriyama Japan) and TE85 (American Type Tissue Culture Collection #CRL 1543, Rockville, MD) osteoblast-line cells were harvested from large culture flasks (175 cm²) where they were allowed to grow to near confluency using Trypsin. […] The radioactivity on the filters was quantified by liquid scintillation spectroscopy. […]
Osteoblast growth was determined by me: ring the rate of 3H-thymidine incorporation into DNA as in Example #1. […]

[5] = system: MC3T3-El osteoblast-line cells; assay: Osteoblast cell number by Coulter counting; assay type: cell-based, mouse; settings: 0.01 to 100 nM, 5 days, no fetal bovine sera; result in words
Procedure: In this study MC3T3-El osteoblast-line cells were cultured into 6 well plates at a density of 50,000 cells/well in 10% fetal bovine sera. The following day media was changed to that containing no fetal bovine sera . The next day some of the cells were harvested by trypsin and counted using a Coulter cell counter. This count was considered as Day 0. […] After 5 days all of the cells were harvested and counted using a Coulter cell counter.
Figure 2. […] Each striped bar represents the mean and the vertical line l S.E.M. of 6 determinations.

[6] = system: TE-85 human osteoblast-line cells; assay: Alkaline phosphatase secretion into the media (osteoblast differentiation); assay type: cell-based
Procedure: Osteoblast growth was determined by me: ring the rate of 3H-thymidine incorporation into DNA as in Example #1. Osteoblast differention was estimated by measuring the secretion of skeletal alkaline phosphatase into the media. Skeletal alkaline phosphatase is considered a reliable marker of osteoblast differention and activity. TE-85 human osteoblast-line cells were cultured as described previously in Example #1. […] 3H-Thymidine incorporation into the osteoblast cell DNA and alkaline phosphatase secreted into the media was measured simultaneously (Figure 3 and 4).

Structure (SMILES) | osteoblast proliferation and differentiation [1] | OSTEOBLAST STIMULATION [1] | other results
CC(=O)O[C@]1(C(C)=O)CC[C@H]2[C@@H]3C=C(Cl)C4=CC(=O)CC[C@]4(C)[C@H]3CC[C@@]21C [chlormadionone acetate] | significantly and reproducibly stimulate |  | 
CC(=O)O[C@]1(C(C)=O)CC[C@H]2[C@@H]3C=C(Cl)C4=CC(=O)[C@@H]5C[C@@H]5[C@]4(C)[C@H]3CC[C@@]21C [cyproterone acetate] | do not stimulate |  | 
C[C@]12CCC(=O)C[C@@H]1CC[C@@H]1[C@@H]2CC[C@]2(C)[C@@H](O)CC[C@@H]12 [DIHYDROTESTOSTERONE, 5-alpha-dihydrotestosterone] |  | NOT ACTIVE | 
C#C[C@]1(O)C=C[C@H]2[C@@H]3CCC4=CC(=O)CC[C@@H]4[C@H]3CC[C@@]21CC [GESTODENE] | do not stimulate | NOT ACTIVE | IC50 [2]: 13 nM
CC(=O)O[C@]1(C(C)=O)CC[C@H]2[C@@H]3C=C(C)C4=CC(=O)CC[C@]4(C)[C@H]3CC[C@@]21C [megestrol acetate] | significantly and reproducibly stimulate |  | 
C#C[C@]1(O)CC[C@H]2[C@@H]3CCC4=CC(=O)CC[C@@H]4[C@H]3CC[C@@]21C [NORETHINDRONE] | significantly and reproducibly stimulate | ACTIVE | proliferation of breast cell line [3]: dose-related increase; osteoblast proliferation ([1]; MC3T3-El cells, result in words): does possess osteoblast proliferative action; also recorded: dose-related increase; 3H-thymidine incorporation [4]: increased; osteoblast number [5]: induced an increase in osteoblast number; secretion of alkaline phosphatase ([6]; TE-85 cells, 0.0001 to 100 nM, result in words): increased; cellular alkaline phosphatase activity in osteoblast-line cells ([6]; summary statement in words, cell line not named): stimulate
CC(=O)[C@H]1CC[C@H]2[C@@H]3CCC4=CC(=O)CC[C@]4(C)[C@H]3CC[C@]12C [PROGESTERONE] | significantly and reproducibly stimulate | ACTIVE | 
C#C[C@]1(O)CC[C@H]2[C@@H]3CCC4=C(CCC(=O)C4)[C@H]3CC[C@@]21C [norethynodrel] | significantly and reproducibly stimulate |  | 
C#C[C@]1(O)CC[C@H]2[C@@H]3CCC4=CC(=O)CC[C@@H]4[C@H]3CC[C@@]21CC [LEVONORGESTREL] |  | NOT ACTIVE | 
CC(=O)O[C@]1(C(C)=O)CC[C@H]2[C@@H]3C[C@H](C)C4=CC(=O)CC[C@]4(C)[C@H]3CC[C@@]21C [medroxyprogesterone acetate] | significantly and reproducibly stimulate |  | 
C#C[C@]1(OC(C)=O)CC[C@H]2[C@@H]3CCC4=CC(=O)CC[C@@H]4[C@H]3CC[C@@]21C [norethindrone acetate] | significantly and reproducibly stimulate |  | 
C#C[C@]1(O)CC[C@H]2[C@@H]3CCC4=CCCC[C@@H]4[C@H]3C(=C)C[C@@]21CC [desogestrel] | do not stimulate |  | 
C#C[C@]1(OC(C)=O)CC[C@H]2[C@@H]3CCC4=CC(=NO)CC[C@@H]4[C@H]3CC[C@@]21CC (mixture of isomers) [NORGESTIMATE] | do not stimulate | NOT ACTIVE | 
C#C[C@]1(O)CC[C@H]2[C@@H]3CCC4=CC(=O)CC[C@@H]4[C@H]3C(=C)C[C@@]21CC [3-KETO-DESOGESTREL] |  | NOT ACTIVE | 
C[C@]12CC[C@H]3[C@@H](CCC4=CC(=O)CC[C@@H]43)[C@@H]1CC[C@@H]2O [19-nortestosterone] | do not stimulate |  | 
